# Results from US20100197765A1, “METHOD FOR PROMOTING THE EXPRESSION OF P53, AND P53 EXPRESSION PROMOTER FOR USE IN THE METHOD” (THE UNIVERSITY OF TOKUSHIMA, priority 2007, published 2010).
# What was measured:
# [1] = tested on: noxa mRNA, puma mRNA, and p21 mRNA; assay: expression of mRNAs induced in p53 pathways in HepG2 cells (Northern); format: cell-based, human; conditions: control siRNA HepG2 cells, 5-FU 30 μmol/L, 16 hours
# Method: In the same manner, HepG2 cells transfected with each type of the vectors were treated for 16 hours in the presence of 5-FU (30 μmol/L) (+) or the absence of 5-FU (−). With respect to the treated cells, expression of noxa mRNA, puma mRNA, and p21 mRNA induced in p53 pathways was analyzed by the Northern blotting. […] In FIG. 1D, the first row from the top indicates expression of noxa mRNA, the second row indicates expression of puma mRNA, the third row indicates expression of p21 mRNA, and the fourth row indicates expression of gapdh mRNA. Definitions of the lanes in FIG. 1D are the same as those of FIG. 1C.
# HepG2 cells = assay: apoptosis (Apoptotic evaluation 1) of siRNA-expressing HepG2 cells treated with 5-FU; format: cell-based, human; conditions: control siRNA-expressing HepG2 cells treated with 5-FU
# Method: Objective cells were treated with various anticancer agents, and then incubated with trypsin/EDTA to prepare cell suspensions. The cell suspensions were centrifuged and supernatants thereof were removed. Thereafter, the cell suspensions each were immobilized and stained with a solution of formaldehyde of 3.7%, Nonidet P40 of 0.5%, and 10 μg/mL of Hoechst33258 (Invitrogen) in PBS. […] The counting was performed with respect to at least 300 cells in one measurement.
# Each type of the recombinant vectors was transfected into HepG2 cells for 18 hours in the same manner as in the above-described item (1). Each type of the transfection cells was treated with an anticancer agent “5-FU” having a predetermined concentration (0, 10, 30 μmol/L) for 60 hours. Then, the apoptosis (%) of the treated cells was examined according to “Apoptosis evaluation 1”. FIG. 1B is a graph showing apoptosis (%) in each type of the cells treated with 5-FU having a predetermined concentration (means±SD, n=3).
# p53-deleted cells HCT116 = assay: apoptosis (TUNEL) in p53-deleted HCT116 cells with vegf siRNA and 5-FU; format: cell-based, human; conditions: p53-deleted cells HCT116, treatment with 5-FU
# Method: Apoptotic cells were evaluated by a TUNEL staining method using in situ Cell Death Detection kit (Roche Diagnostic). […] The counting was performed with respect to at least 300 cells in one measurement.
# Various types of cells were treated with 5-FU, which is an anticancer agent inducing apoptosis in a p53-dependent manner, and the sensitivity to apoptosis was analyzed. The vegf siRNA#1 vectors expressing siRNA#1, the vegf siRNA #2 vectors expressing siRNA #2, and the control siRNA vectors described above respectively were transfected into HCT 116 (parent cells) and p53-deleted cells HCT116. Then, the cells after 18 hours from the transfection was treated for 60 hours in the presence of […] of 5-FU (+) or in the absence of 5-FU (−). The proportion (%) of apoptosis positive cells in the thus-treated cells was calculated based on “Apoptotic evaluation 2” above (means±SD, n=4).
# HCT116 cells [2] = assay: apoptosis of siRNA-expressing HCT116 cells treated with low-concentration anticancer agents, with or without rVEGF; format: cell-based, human; conditions: HCT116 not expressing siRNA (NT) and control siRNA cells, low concentrations, 60 hours
# Method: The recombinant vectors that express vegf siRNA#1 and #2 and the vectors that express control siRNA were transfected into HCT116 cells (parent cells, wild-type p53). As a control cell, an HCT116 cell not transfected with a recombinant vector that expresses siRNA was used. These four types of cells were treated in the presence or absence of various anticancer agents having the final concentrations as described below for 60 hours. As the anticancer agent, etoposide (20 μmol/L), doxorubicin (170 nmol/L), and 5-FU (40 μmol/L) were used. With respect to the treated cells, apoptosis (%) was quantified in the same manner as in Example A1.
# UTR RNA and function of VEGF protein. With the aim of clarifying an effect of blocking the function of vegf 5′ UTR RNA, recombinant VEGF protein (R&D systems, hereinafter referred to as “rVEGF”) was added to a culture supernatant of cells transfected with vegf siRNA in order to add VEGF protein that is decreased due to siRNA. […] Therefore, in Example A9, 1 ng/ml of rVEGF protein was added to the four types of cells. […] Then, these transfection cells were treated with anticancer agents in the same manner as described above.
# HCT116 cells [3] = assay: p53 mRNA, vegf IresRNA and vegf mRNA in HCT116 cells exposed to genotoxic stress (Northern); format: cell-based, human
# Method: HCT116 cells (parent cells) were exposed to genotoxic stress that upregulates the expression of p53 mRNA. […] Also, HCT116 cells were exposed to UV-B for 1 minute. Then, after placing them under non-exposed conditions for a predetermined time (6, 12 hours), the expressions were examined in the same manner as in the above.
# p53 mRNA [4] = assay: degradation/silencing of exogenous p53 mRNA in H1299 cells (Northern); format: cell-based, human; conditions: H1299, cycloheximide 50 μg/ml, 16 hours
# Method: In the same manner as in Example A4, the p53 expression vectors and each type of the recombinant plasmid vectors, pVC and pVCmut5′, or empty vectors (mock) were cotransfected into H1299 cells (p53 null), and the cells were cultured for 12 hours. RNA was collected from each type of the transfection cells, the RNA was separated by a denatured agarose gel electrophoresis, and exogenous p53 mRNA and its degradation product were detected by the Northern blotting. FIG. 7A is a photograph showing exogenous p53 mRNA and its degradation product in each type of the cells. In FIG. 7A, the lane 1 “mock” indicates the result obtained regarding the cells transfected with the empty vectors, the lane 2 “VEGF mut5′” indicates the result obtained regarding the cells transfected with pVCmut5′, and the lane 3 “VEGF 5” indicates the result obtained regarding the cells transfected with pVC. The size (nt) of an RNA marker (Ambion, Inc.) was shown on the left of the photograph of blotting.
# First, the p53 expression vectors and each type of the recombinant plasmid vectors, pVC and pVCmut5′, were cotransfected into H1299 cells (p53 null), and the cells were cultured for 8 hours. […] With respect to the treated cells, the expression level of p53 mRNA was analyzed by the Northern blotting. […]
# p53 mRNA [5] = assay: cell-free protein synthesis reaction after heteroduplex formation; format: biochemical, human; conditions: cell-free protein synthesis with p53 mRNA/5′ UTR RNA heteroduplex, cycloheximide added
# Method: (5) Detection of p53 mRNA and its Degradation Product In the same manner as in the above-described item (3), mutant 5′ UTR RNA or 5′ UTR was incubated with p53 mRNA. As described above, mutant 5′ UTR RNA and p53 mRNA form a heteroduplex by incubation. Then, using the treated RNA samples, in the presence or absence of cycloheximide (final concentration of […]) or in the presence of purified ribosome prepared by a sucrose density-gradient centrifugation method, a cell-free protein synthesis reaction was performed. The cell-free protein synthesis was carried out by making reference to the research paper (Huez, I. et al. Mol. Cell. Biol. 18, 6178-6190 (1998)) or using Wako PURE system (trade name, Wako Chemical) following the specifications thereof.
# In the same manner as in the above-described item (4), RNAs each were incubated in the combination shown in FIG. 8E, and cell-free protein synthesis was carried out. In this state, [^35S] methionine coexisted in a reaction solution of cell-free protein synthesis. Then, p53 protein synthesized in vitro was separated by SDS-PAGE using a polyacrylamide gel of 12%, and a dried gel was subjected to an autoradiography. FIG. 8E is an autoradiography showing synthesis of p53 protein in a reaction solution of cell-free protein in the presence of vegf 5′ UTR. […]
# vegf IresRNA = assay: p53 mRNA in p53-deleted HCT116 cotransfected with p53 vector, vegf IresRNA vector and decoy or antisense LNA-DNA (Northern); format: cell-based, human
# [6] = tested on: HCT116 cells (wild-type p53); assay: survival rate of HCT116 cells transfected with decoy or antisense LNA-DNA after 5-FU; format: cell-based, human; conditions: after 5-FU (40 μmol/L)
# Method: The wild-type and mutant-type p53 decoy LNA-DNA were transfected into HCT116 cells (wild-type p53). The cells transfected with the decoys were cultured in McCoy's 5A medium containing 10% fetal bovine serum and 100 μg/ml (100 units/ml) of streptomycin, and the relative value of the survival rate (%) was calculated according to “Apoptosis evaluation 2”. The relative value was obtained with the number of viable cells of 5-FU untreated cells being considered as 100%. In addition, the survival rate of HCT cells (p53) not transfected with the decoys also was calculated in the same manner as described above.
# The wild-type and mutant-type vegf antisenses were transfected into HCT116 cells (wild-type p53). With respect to the cells transfected with the antisenses, the relative value of the survival rate (%) was calculated in the same manner as in Example C4. The relative value was obtained with the number of viable cells of 5-FU untreated cells being considered as 100%. In addition, the survival rate of HCT cells (wild-type p53) not transfected with the vegf antisenses was also calculated in the same manner as described above.
# [7] = vegf antisense LNA-DNA cotransfected with vegf IresRNA and p53 expression vectors
compound,measurement,setting,value
"O=c1[nH]cc(F)c(=O)[nH]1 [5-FU, 5-fluorouracil, reference compound]",expression of p21 mRNA,[1],slightly induced
same,proportion of apoptosis,HepG2 cells,slightly increased
same,proportion of apoptosis,p53-deleted cells HCT116,increased slightly
same,significant enhancement of apoptosis,HCT116 cells [2],not induced
same,vegf IresRNA and vegf mRNA expression,"HCT116 cells [3]; HCT116, 5-FU 80 μmol/L or MMC 6 μg/ml, 0, 6, 12 hours",increased markedly
same,expression of the p53 mRNA,"HCT116 cells [3]; HCT116, 5-FU 80 μmol/L, MMC 6 μg/ml or cisplatin 5 μg/ml, 0, 6, 12 hours",suppressed
C[C@@H]1C[C@@H]([C@H](O)CC2CC(=O)NC(=O)C2)C(=O)[C@@H](C)C1 [cycloheximide],effect on silencing of p53 mRNA due to vegf 5′ UTR,p53 mRNA [4],marked inhibition of silencing
same,effect on partial degradation of p53 mRNA,p53 mRNA [5],completely blocked
"COc1cccc2c1C(=O)c1c(O)c3c(c(O)c1C2=O)C[C@@](O)(C(=O)CO)C[C@@H]3O[C@H]1C[C@H](N)[C@H](O)[C@H](C)O1 [doxorubicin, reference compound]",significant enhancement of apoptosis,HCT116 cells [2],not induced
"COc1cc([C@@H]2c3cc4c(cc3[C@@H](O[C@@H]3O[C@@H]5CO[C@@H](C)O[C@H]5[C@H](O)[C@H]3O)[C@H]3COC(=O)[C@H]23)OCO4)cc(OC)c1O [etoposide, reference compound]",significant enhancement of apoptosis,HCT116 cells [2],not induced
"mutant-type p53 decoy: LNA-DNA of the p53 decoy sequence introduced with mutation, SEQ ID NO: 94, 5′-cccGCcCACCcGGctgGTcca-3′ (DNA CCCGCCCACCCGGCTGGTCCA; LNA-DNA mixmer, LNA positions not given here)",expression amount of p53 mRNA,vegf IresRNA; p53 decoy LNA-DNA cotransfected with vegf IresRNA and p53 expression vectors,small
"mutant-type vegf antisense: antisense LNA-DNA having the sequence introduced with mutation, SEQ ID NO: 95, 5′-cccGCcCGggTcGTcCgcAccA-3′ (antisense CCCGCCCGGGTCGTCCGCACCA; LNA-DNA mixmer, LNA positions not given here)",expression amount of p53 mRNA,vegf IresRNA; [7],small
"wild-type p53 decoy: LNA-DNA corresponding to a sequence from base 462 to base 482 of p53 mRNA, SEQ ID NO: 93, 5′-ccccgcgtggcccctgcacca-3′ (DNA CCCCGCGTGGCCCCTGCACCA; LNA-DNA mixmer, LNA positions not given here)",survival rate of cells,"[6]; p53 decoy, vs no decoy and mutant-type decoy",decreased
"wild-type vegf antisense: antisense LNA-DNA complementary to bases 693 to 714 of vegf IresRNA, SEQ ID NO: 74, 5′-ccccgcgcggaccacggctcct-3′ (antisense CCCCGCGCGGACCACGGCTCCT; LNA-DNA chimera, LNA positions not given here)",survival rate of cells,"[6]; vegf antisense, vs cells (none) not transfected",markedly decreased
same,expression amount of p53 mRNA,vegf IresRNA; [7],marked expression amount
